Columns and labels:
Format in all cases: cell-based
Settings in all cases: to LPS control
IL-1β = IL-1β suppression assay
TNF-α = TNF-α suppression assay
IL-6 = IL-6 suppression assay

Compound: NS(=O)(=O)c1ccc(-n2nc(C(=O)NN3C(=O)CCC3=O)cc2-c2ccccc2)cc1 [AS-11, N-(2,5-dioxopyrrolidin-1-yl)−5-phenyl-1-(4-sulfamoylphenyl)−1H-pyrazole-3-carboxamide]
- IL-1β release percentage inhibition (IL-1β): 75%
- TNF-α release percentage inhibition (TNF-α): 91%
- IL-6 release percentage inhibition (IL-6): 61%
